Data set [1] in a line: Metabolic Stability (M = Mouse). In kind it is in vitro ADME.
Data set [2] addresses T1, GHSR1a (Homo sapiens, UniProt Q92847).
T1 construct: expressed in transfected cells; host or cells: HEK293
Briefly: Calcium FLIPR assay, GHSR-1a antagonism (reduction of ghrelin response). In kind it is cell-based. To be noted: HEK293/GHSR1a cells, ghrelin 10 nM. A digest of the protocol:
(§1)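 Cells stably carrying human GHSR1a were plated a day ahead, dye-loaded, then given test compound. Agonist activity was the calcium rise over 2 minutes after compound addition at t=20 sec; antagonist activity was the reduction of the response to 10 nM ghrelin added together with compound.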

Data set [3] in a line: Metabolic Stability (H = Human). Type of data set: in vitro ADME.
In data set [4] the target is T1, GHSR1a. The data set can be described thus: Calcium FLIPR assay, GHSR-1a agonism. In kind it is cell-based. Set-up: Emax: unit not given here. To be noted: HEK293/GHSR1a cells. In a few lines:
as §1

These results are taken from patent publication US9546157B2, “Asymmetric piperidinyl-substituted ureas as medicines” (Helsinn Healthcare SA, priority 2014, dated 2017).

The structures appear in SMILES notation.

T1 sequence (Q92847 whole entry): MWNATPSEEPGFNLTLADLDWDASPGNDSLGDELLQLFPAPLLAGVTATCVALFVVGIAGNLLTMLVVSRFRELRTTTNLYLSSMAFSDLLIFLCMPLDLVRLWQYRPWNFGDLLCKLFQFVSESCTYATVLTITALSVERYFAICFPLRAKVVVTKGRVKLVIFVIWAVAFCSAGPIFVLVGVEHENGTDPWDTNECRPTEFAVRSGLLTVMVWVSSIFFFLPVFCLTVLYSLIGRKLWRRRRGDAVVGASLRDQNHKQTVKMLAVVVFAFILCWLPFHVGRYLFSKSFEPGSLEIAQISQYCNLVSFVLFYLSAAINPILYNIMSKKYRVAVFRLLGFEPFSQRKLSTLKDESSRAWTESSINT

For `CC(NC(=O)N(C)C1CCN(C)CC1)c1ccc(-c2ccc(CO)s2)c(Cl)c1Cl` (stereo not drawn) [Compound H0653, 3-(1-(2,3-dichloro-4-(5-(hydroxymethyl)thiophen-2-yl)phenyl)ethyl)-1-methyl-1-(1-methylpiperidin-4-yl)urea], the “Metabolic Stability M” value in data set [1] was “Medium H Medium M”. Further, the IC50 – broadly, the point on the concentration scale where inhibition reaches its midpoint – at GHSR1a [2] turned out to be 4 nM. Further, in data set [3], the “Metabolic Stability H” value was “Medium H Medium M”. At GHSR1a [4], the EC50 (in general, the concentration giving half of the maximal effect) worked out at 9 nM and the Emax was determined as 1815.
On to `CC(NC(=O)N(C)C1CCN(C)CC1)c1ccc(-c2cnn(C)c2)c(Cl)c1Cl` (stereo not drawn) [Compound H0501, 3-(1-(2,3-dichloro-4-(1-methyl-1H-pyrazol-4-yl)phenyl)ethyl)-1-methyl-1-(1-methylpiperidin-4-yl)urea], for which, in data set [1], the “Metabolic Stability M” value is recorded as “High H High M”. Further, the IC50 on GHSR1a [2] was determined as 13 nM. Also, the “Metabolic Stability H” value in data set [3] is reported as “High H High M”. Further, the concentration giving a half-maximal response (EC50) at GHSR1a [4] was determined as 22 nM.
`CC(NC(=O)N(C)C1CCN(C)CC1)c1ccc(-c2c[nH]nn2)c(Cl)c1Cl` (stereo not drawn) [Compound H0604, 3-(1-(2,3-dichloro-4-(1H-1,2,3-triazol-4-yl)phenyl)ethyl)-1-methyl-1-(1-methylpiperidin-4-yl)urea]: in data set [1], the “Metabolic Stability M” value is reported as “High H High M”. For the same molecule, the IC50 at GHSR1a [2] amounted to 12 nM. In data set [3], the “Metabolic Stability H” value was “High H High M”. Also, the EC50 at GHSR1a [4] was 25 nM.
Turning to `CN1CCC(N(C)C(=O)NC(CC2CC2)c2ccc(-c3ccc(C(N)=O)s3)c(Cl)c2Cl)CC1` (stereo not drawn) [Compound H0728, 5-(2,3-dichloro-4-(2-cyclopropyl-1-(3-methyl-3-(1-methylpiperidin-4-yl)ureido)ethyl)phenyl)thiophene-2-carboxamide], the “Metabolic Stability M” value in data set [1] is “Medium H Medium M”. Besides, the IC50 on GHSR1a [2] is 5 nM. The “Metabolic Stability H” value in data set [3] is “Medium H Medium M”. Moreover, the EC50 at GHSR1a [4] was over 30000 nM.
As to `CC(NC(=O)N(C)C1CCN(C)CC1)c1ccc(-c2cscn2)c(Cl)c1Cl` (stereo not drawn) [Compound H0568, 3-(1-(2,3-dichloro-4-(thiazol-4-yl)phenyl)ethyl)-1-methyl-1-(1-methylpiperidin-4-yl)urea], the “Metabolic Stability M” value in data set [1] is listed as “High H High M”. For the same molecule, at GHSR1a [2], the IC50 came to 9 nM. In data set [3], the “Metabolic Stability H” value is on record as “High H High M”. The EC50 at GHSR1a [4] came to 4 nM.
`CN1CCC(N(C)C(=O)N[C@@H](c2ccc(-c3cnccn3)c(Cl)c2Cl)C(F)(F)F)CC1` [Compound H0899, (S)-3-(1-(2,3-dichloro-4-(pyrazin-2-yl)phenyl)-2,2,2-trifluoroethyl)-1-methyl-1-(1-methylpiperidin-4-yl)urea]: the “Metabolic Stability M” value in data set [1] is “High”. Further, the IC50 at GHSR1a [2] came out at 1600 nM. Besides, the “Metabolic Stability H” value in data set [3] is “Medium”. Further, the EC50 at GHSR1a [4] is over 30000 nM.
For the molecule `CCC(NC(=O)N(C)C1CCN(C)CC1)c1ccc(-c2cncc(F)n2)c(Cl)c1Cl` (stereo not drawn) [Compound H0863, 3-(1-(2,3-dichloro-4-(6-fluoropyrazin-2-yl)phenyl)propyl)-1-methyl-1-(1-methylpiperidin-4-yl)urea], the “Metabolic Stability M” value in data set [1] is recorded as “High”. Also, the IC50 at GHSR1a [2] stood at 3 nM. Besides, in data set [3], the “Metabolic Stability H” value is “Medium”. Further, the EC50 at GHSR1a [4] is over 30000 nM.
With `CC(NC(=O)N(C)C1CCN(C)CC1)c1ccc(-c2ccsc2)c2ccccc12` (stereo not drawn) [Compound H0574, 1-methyl-1-(1-methylpiperidin-4-yl)-3-(1-(4-(thiophen-3-yl)naphthalen-1-yl)ethyl)urea], the “Metabolic Stability M” value in data set [1] is listed as “Medium H Medium M”. The IC50 at GHSR1a [2] was found to be 67 nM. The “Metabolic Stability H” value in data set [3] is “Medium H Medium M”. In addition, on GHSR1a [4], the EC50 stood at 81 nM and the Emax amounted to 2489.
As to `CC(NC(=O)N(C)C1CCN(C)CC1)c1ccc(-c2cncc(Br)c2)c(Cl)c1Cl` (stereo not drawn) [Compound H0695, 3-(1-(4-(5-bromopyridin-3-yl)-2,3-dichlorophenyl)ethyl)-1-methyl-1-(1-methylpiperidin-4-yl)urea], the IC50 at GHSR1a [2] is 78 nM. Further, the EC50 on GHSR1a [4] is 5 nM.
On to `CC(NC(=O)N(C)C1CCN(C)CC1)c1ccc(-c2cncc(-c3c[nH]cn3)c2)c(Cl)c1Cl` (stereo not drawn) [Compound H0711, 3-(1-(4-(5-(1H-imidazol-4-yl)pyridin-3-yl)-2,3-dichlorophenyl)ethyl)-1-methyl-1-(1-methylpiperidin-4-yl)urea], for which the IC50 at GHSR1a [2] stood at 1850 nM. In addition, the EC50 on GHSR1a [4] is over 30000 nM.
As for `CC(NC(=O)N(C)C1CCN(C)CC1)c1ccc(C#C[Si](C)(C)C)c(Cl)c1Cl` (stereo not drawn) [Compound H0602, 3-(1-(2,3-dichloro-4-((trimethylsilyl)ethynyl)phenyl)ethyl)-1-methyl-1-(1-methylpiperidin-4-yl)urea], at GHSR1a [2], the IC50 stood at 8 nM. Further, the EC50 at GHSR1a [4] is over 30000 nM.
In the case of `COC(=O)c1cncc(-c2ccc(C(C)NC(=O)N(C)C3CCN(C)CC3)c(Cl)c2Cl)c1` (stereo not drawn) [Compound H0635, methyl 5-(2,3-dichloro-4-(1-(3-methyl-3-(1-methylpiperidin-4-yl)ureido)ethyl)phenyl)nicotinate], the IC50 on GHSR1a [2] turned out to be 1090 nM. Further, on GHSR1a [4], the EC50 was over 30000 nM.
`CC(NC(=O)N(C)C1CCN(C)CC1)c1ccc(-c2cccnn2)c(Cl)c1Cl` (stereo not drawn) [Compound H0729, 3-(1-(2,3-dichloro-4-(pyridazin-3-yl)phenyl)ethyl)-1-methyl-1-(1-methylpiperidin-4-yl)urea]: at GHSR1a [2], the IC50 worked out at 100 nM. Moreover, at GHSR1a [4], the EC50 came to 95 nM and the Emax was determined as 2818.
Consider `COc1cc(OC)cc(-c2ccc(C(C)NC(=O)N(C)C3CCN(C)CC3)c(Cl)c2Cl)c1` (stereo not drawn) [Compound H0611, 3-(1-(2,3-dichloro-3′,5′-dimethoxy-[1,1′-biphenyl]-4-yl)ethyl)-1-methyl-1-(1-methylpiperidin-4-yl)urea], for which the IC50 on GHSR1a [2] was 2300 nM. Besides, the EC50 at GHSR1a [4] is over 30000 nM.
Take `CC(NC(=O)N(C)C1CCN(C)CC1)c1ccc(-c2cnc3ccccc3n2)c(Cl)c1Cl` (stereo not drawn) [Compound H0828, 3-(1-(2,3-dichloro-4-(quinoxalin-2-yl)phenyl)ethyl)-1-methyl-1-(1-methylpiperidin-4-yl)urea]: the IC50 on GHSR1a [2] was 376 nM. In addition, the EC50 on GHSR1a [4] is over 30000 nM.
As to `CC(NC(=O)N(C)C1CCN(C)CC1)c1ccc(-c2cnc(N3CCN(C)CC3)c(C#N)c2)c(Cl)c1Cl` (stereo not drawn) [Compound H0821, 3-(1-(2,3-dichloro-4-(5-cyano-6-(4-methylpiperazin-1-yl)pyridin-3-yl)phenyl)ethyl)-1-methyl-1-(1-methylpiperidin-4-yl)urea], the IC50 at GHSR1a [2] is 2300 nM. Also, at GHSR1a [4], the EC50 is over 30000 nM.
Regarding `COC(=O)c1ccc(C(C)NC(=O)N(C)C2CCN(C)CC2)c(Cl)c1Cl` (stereo not drawn) [Compound H0521], the 50% inhibitory concentration (IC50) on GHSR1a [2] stood at 20 nM. Moreover, the EC50 on GHSR1a [4] was found to be 19 nM.
As for `CN1CCC(N(C)C(=O)NC(CC2CC2)c2ccc(-c3cnccn3)c(Cl)c2Cl)C1` (stereo not drawn) [Compound H0874, 3-(2-cyclopropyl-1-(2,3-dichloro-4-(pyrazin-2-yl)phenyl)ethyl)-1-methyl-1-(1-methylpyrrolidin-3-yl)urea], at GHSR1a [2], the half-inhibitory concentration (IC50) was 115 nM. At GHSR1a [4], the EC50 was over 30000 nM.
As for `CC(NC(=O)N(C)C1CCN(C)CC1)c1ccc(-c2ccnnc2)c(Cl)c1Cl` (stereo not drawn) [Compound H0783, 3-(1-(2,3-dichloro-4-(pyridazin-4-yl)phenyl)ethyl)-1-methyl-1-(1-methylpiperidin-4-yl)urea], the IC50 at GHSR1a [2] worked out at 681 nM. Also, the concentration for a half-maximal effect (EC50) on GHSR1a [4] was determined as 30 nM.
For `Cc1nccnc1-c1ccc(C(CC2CC2)NC(=O)N(C)C2CCN(C)CC2)c(Cl)c1Cl` (stereo not drawn) [Compound H0844, 3-(2-cyclopropyl-1-(2,3-dichloro-4-(3-methylpyrazin-2-yl)phenyl)ethyl)-1-methyl-1-(1-methylpiperidin-4-yl)urea], the IC50 on GHSR1a [2] came to 705 nM. For the same molecule, the EC50 at GHSR1a [4] is over 30000 nM.
For the molecule `CC(NC(=O)N(C)C1CCN(C)CC1)c1ccc(-c2cnc(Cl)nc2)c(Cl)c1Cl` (stereo not drawn) [Compound H0801, 3-(1-(2,3-dichloro-4-(2-chloropyrimidin-5-yl)phenyl)ethyl)-1-methyl-1-(1-methylpiperidin-4-yl)urea], at GHSR1a [2], the IC50 came to 20 nM. At GHSR1a [4], the EC50 was found to be 45 nM and the Emax stood at 3915.
For the molecule `CC(NC(=O)N(C)C1CCN(C)CC1)c1ccc(-c2cncc(CCl)n2)c(Cl)c1Cl` (stereo not drawn) [Compound H0786, 3-(1-(2,3-dichloro-4-(6-(chloromethyl)pyrazin-2-yl)phenyl)ethyl)-1-methyl-1-(1-methylpiperidin-4-yl)urea], the IC50 at GHSR1a [2] stood at 855 nM. In addition, at GHSR1a [4], the concentration for a half-maximal effect (EC50) was found to be 242 nM and the Emax was 980.
Consider `CC(NC(=O)N(C)C1CCN(C)CC1)c1ccc(-c2cc(F)cc(CO)c2)c(Cl)c1Cl` (stereo not drawn) [Compound H0696, 3-(1-(2,3-dichloro-3′-fluoro-5′-(hydroxymethyl)-[1,1′-biphenyl]-4-yl)ethyl)-1-methyl-1-(1-methylpiperidin-4-yl)urea], for which the IC50 on GHSR1a [2] was determined as 120 nM. Besides, at GHSR1a [4], the EC50 was over 30000 nM.
On to `CC(NC(=O)N(C)C1CCN(C)CC1)c1cnc(C#CC2CC2)c(Cl)c1Cl` (stereo not drawn) [Compound H0884, 3-(1-(4,5-dichloro-6-(cyclopropylethynyl)pyridin-3-yl)ethyl)-1-methyl-1-(1-methylpiperidin-4-yl)urea], for which, at GHSR1a [2], the IC50 is 197 nM. Besides, the EC50 on GHSR1a [4] was over 30000 nM.
As for `CC(NC(=O)N(C)C1CCN(C)CC1)c1ccc(C2OCCO2)c(Cl)c1Cl` (stereo not drawn) [Compound H0645, 3-(1-(2,3-dichloro-4-(1,3-dioxolan-2-yl)phenyl)ethyl)-1-methyl-1-(1-methylpiperidin-4-yl)urea], the IC50 on GHSR1a [2] came out at 133 nM. Moreover, at GHSR1a [4], the EC50 was 287 nM and the Emax came to 2761.
